Calls of active or inactive are those of the source. No cut-off for these calls is given here.
Legend:
Escherichia coli = assay: Antibacterial activity against Escherichia coli; assay type: functional, organism-based
Pseudomonas syringae = assay: Antibacterial activity against Pseudomonas syringae; assay type: functional, organism-based
Xanthomonas campestris = assay: Antibacterial activity against Xanthomonas campestris; assay type: functional, organism-based
Bacillus subtilis = assay: Antibacterial activity against Bacillus subtilis; assay type: functional
Ralstonia solanacearum = assay: Antibacterial activity against Ralstonia solanacearum; assay type: functional, organism-based
Mammaliicoccus lentus = assay: Antibacterial activity against Staphylococcus lentus; assay type: functional
Nakaseomyces glabratus = assay: Antibacterial activity against Candida glabrata; assay type: functional, organism-based
Pseudomonas fluorescens = assay: Antibacterial activity against Pseudomonas fluorescens; assay type: functional, organism-based
Erwinia amylovora = assay: Antibacterial activity against Erwinia amylovora; assay type: functional, organism-based

| SMILES | Activity (Escherichia coli) | Activity (Pseudomonas syringae) | Activity (Xanthomonas campestris) | Activity (Bacillus subtilis) | Activity (Ralstonia solanacearum) | Activity (Mammaliicoccus lentus) [µg/mL] | Activity (Nakaseomyces glabratus) | Activity (Pseudomonas fluorescens) | Activity (Erwinia amylovora) |
| --- | --- | --- | --- | --- | --- | --- | --- | --- | --- |
| COC(=O)c1cccc2nc3c(C(C(=O)OC)C(O)CCCCC(C)C)cccc3nc12 (stereo unspecified) [STREPTOPHENAZINE F] | inactive | inactive | inactive | inactive | inactive | 62.5 | inactive | inactive | inactive |
| CCCCCCC(O)C(C(=O)OC)c1cccc2nc3c(C(=O)OC)cccc3nc12 (stereo unspecified) [STREPTOPHENAZINE B] | inactive | inactive | inactive | inactive | inactive | 62.5 | inactive | inactive | inactive |
| COC(=O)C(c1cccc2nc3c(C(=O)O)cccc3nc12)C(O)CCCC(C)C (stereo unspecified) [STREPTOPHENAZINE C] | inactive | inactive | inactive | 15.6 µg/mL | inactive | 46.9 | inactive | inactive | inactive |
| COC(=O)c1cccc2nc3c(C(C(=O)OC)C(O)CCCC(C)C)cccc3nc12 (stereo unspecified) [STREPTOPHENAZINE A] | inactive | inactive | inactive | 46.9 µg/mL | inactive | 62.5 | inactive | inactive | inactive |
| COC(=O)c1cccc2nc3c(C(C(=O)OC)C(O)CCCC(C)(C)O)cccc3nc12 (stereo unspecified) [STREPTOPHENAZINE H] |  |  |  | 15.6 µg/mL |  |  | inactive |  |  |
| CCC(C)CCCC(O)C(C(=O)OC)c1cccc2nc3c(C(=O)OC)cccc3nc12 (stereo unspecified) [STREPTOPHENAZINE G] | inactive | inactive | inactive | inactive | inactive | 62.5 | inactive | inactive | inactive |
| COC(=O)c1cccc2nc3c(C(C(=O)OC)C(O)CCC(C)C)cccc3nc12 (stereo unspecified) [STREPTOPHENAZINE D] |  |  |  | 62.5 µg/mL |  |  | inactive |  |  |
| CCCCC(O)C(C(=O)OC)c1cccc2nc3c(C(=O)OC)cccc3nc12 (stereo unspecified) [STREPTOPHENAZINE E] |  |  |  | 62.5 µg/mL |  |  | inactive |  |  |

— ChEMBL document CHEMBL1150242, “Subinhibitory concentrations of antibiotics induce phenazine production in a marine Streptomyces sp” (2008)
